# Patent US20250249007A1, “PHARMACEUTICAL COMPOSITIONS OF ENSIFENTRINE FOR CHRONIC OBSTRUCTIVE PULMONARY DISEASE” (Verona Pharma PLC, priority 2024, published 2025)
# Experiments:
# [1] = system: patients with moderate to severe COPD; assay: Clinical study of nebulized ensifentrine versus placebo in COPD: average FEV1 AUC0-12h at week 12; format: in vivo, human
# Method: A clinical study was conducted to determine the efficacy of ensifentrine in treating COPD compared with placebo. Ensifentrine was administered by nebulizer at a dose of 3 mg twice daily (BID) for 24 weeks. The study was a multicenter, randomized, double-blind, parallel group, placebo-controlled trial with around 800 patients and 5:3 randomization.
# The study population included patients aged 40-80 years with moderate to severe COPD (FEV1 30%-70% p.n., FEV1/forced vital capacity (FVC) ratio<0.7, with mMRC≥2). The randomization stratified (a) the use of stable background maintenance LAMA or LABA therapy use (approx. 50% yes or no) and (b) cigarette smoking (current or former). Inhaled corticosteroid (ICS) maintenance therapy was permitted in up to 20% of patients under certain provisions.
# The primary endpoint of the study was change from baseline in average FEV1 area under the curve (AUC0-12h) […] at week 12; morning trough FEV1 at week 12; and other endpoints including moderate/severe COPD exacerbations frequency over 24 weeks.
# Baseline FEV1 is the mean of the two measurements taken before study medication on the day of first dosing, i.e., ≤40 minutes and just prior to dosing, both pre-dose on day 1. Average FEV1 AUC0-12h is defined as area under the curve over 12 h of the FEV1, divided by 12 h.
# The investigational product and placebo were provided in 2.5 mL unit dose format in an ampule and administered via a nebulizer. The formulation of the investigational product (ensifentrine suspension formulation comprising crystalline polymorph Form I of ensifentrine) and placebo are shown in Table 2.
# [2] = popPK model simulation of ensifentrine PK by renal function (virtual population of COPD subjects); design: species or system human; conditions: nebulization of 3 mg, simulated
# Method: Plasma concentrations of ensifentrine for the assessment of pharmacokinetic (PK) parameters were measured using validated bioanalytical methods for ensifentrine in human plasma with LLOQ of 5 pg/mL. Samples were taken on the following schedule: • Week 6: 1.0 h (±0.5 h) and 2.5 h (±0.5 h) (even sites) or 1.5 h and 4 h (±1 h) (odd sites); • Week 12: pre-dose (−0.5 h), 4 to 6 h, and 8 to 12 h (even sites) or 0.5 h (±0.25 h), 3 h (±0.5 h), and 6 to 8 h (odd sites); • Week 24: pre-dose (−0.5 h) and 1.5 h (even sites) or pre-dose (−0.5 h) and 1 h (±0.5 h) (odd sites)
# Based on the samples taken during the trial, PK data was modelled for COPD patients with varying levels of renal function:
# A two-compartment model with first-order input and first-order elimination from the central compartment was fit to the plasma concentration-time data of ensifentrine using NONMEM® version 7.4.4. Different absorption functions and compartmental structures were explored. […]
# The final model was evaluated using goodness of fit plots, bootstrap analysis, and visual predictive checks (VPCs). […]
# Subjects with normal renal function to mild renal impairment are defined as those individuals with an absolute estimated glomerular filtration rate (aEGFR) of greater than or equal to 60 mL/min. […] Individual subject concentrations were simulated using NONMEM version 7.4.3, and PK parameters were calculated using R version 3.4.0. […]
# [3] = Dose normalized steady-state AUCtau in non-COPD subjects with and without hepatic impairment; format: in vivo, human; conditions: for AUC: human, plasma, inhaled, 3 mg, dose normalized to 3 mg, FIG. 3
# Method: The dose normalized steady-state AUCtau for a 3 mg dose in non-COPD subjects with and without hepatic impairment is shown in FIG. 3. As described in FIG. 3 the AUCtau,ss of healthy subjects was from about 5000 pg/mL*h to about 9000 pg/mL*h. The AUCtau,ss of subjects with moderate hepatic impairment was about 4000 pg/mL*h to about 11000 pg/mL*h. The AUCtau,ss of subjects with severe hepatic impairment was about 5500 pg/mL*h to about 6500 pg/mL*h. […] The highest dose normalized AUCtau,ss observed in this subset was for a subject with moderate hepatic impairment, but this was not the highest exposure in the overall dataset as it was exceeded by two other subjects with COPD.
compound,measurement,setting,value
"COc1cc2c(cc1OC)-c1c/c(=N\c3c(C)cc(C)cc3C)n(CCNC(N)=O)c(=O)n1CC2 [Ensifentrine, N-(2-{(2E)-9,10-dimethoxy-4-oxo-2-[(2,4,6-trimethylphenyl)imino]-6,7-dihydro-2H-pyrimido[6,1-a]isoquinolin-3(4H)-yl}ethyl)urea]","Average FEV1 (AUC)0-12 h post-dose at Week 12: Change from Baseline, CFB Least Squares Mean (95% CI)","[1]; 3 mg BID by nebulizer, week 12, n = 498","48.2 (30.0, 66.5) mL"
same,Average FEV1 (AUC)0-12 h post-dose at Week 12: Placebo-corrected CFB LS Mean Diff. (95% CI),"[1]; 3 mg BID by nebulizer, week 12, versus placebo","93.9 (64.5, 123.3) mL"
same,Improvement in lung function,[1]; individuals with normal renal function to mild renal impairment and subjects with moderate renal impairment,statistically significant improvement in lung function
same,AUC ratio aEGFR < 60 mL/min: ≥60 mL/min,[2],1.30
same,Cmax ratio aEGFR < 60 mL/min: ≥60 mL/min,[2],1.16
same,AUC,[3]; healthy subjects,5 to 9 ng·h/mL
same,AUC,[3]; subjects with moderate hepatic impairment (n=10),4 to 11 ng·h/mL
same,AUC,[3]; subjects with severe hepatic impairment (n=2),5.5 to 6.5 ng·h/mL
same,Exposure (AUC) in hepatic impairment versus healthy subjects,[3]; moderate (n=10) or severe (n=2) hepatic impairment,comparable to healthy subjects
